Experimental findings from US20070128217A1 (priority 2003, published 2007) are described below.

Assay [1] deals with control sera (pooled serum of ten healthy LUMC hospital workers; commercial negative donor pooled serum from the Dutch bloodbank). It counts as binding, human. Details: Binding of Control serum LUMC to linear peptides / Binding of Control serum Blood-bank to linear peptides / Binding of Control serum LUMC to looped peptides / Binding of Control Serum Blood-Bank to Looped peptides / Binding of Control serum LUMC to linear peptides of the protein M of SARS-CoV Urbani / Binding of Control serum Blood-bank to linear peptides of the protein M of SARS-CoV Urbani / Binding of Control serum LUMC to looped peptides of the protein M of SARS-CoV Urbani / Binding of Control Serum Blood-Bank to Looped peptides of the protein M of SARS-CoV Urbani: unit not given here.

The test system of assay [2] is rabbit serum obtained by immunizing a rabbit with the SARS-CoV strain Frankfurt 1. It counts as binding. Details: Binding of a rabbit serum to linear peptides / Binding of a rabbit serum to looped peptides / Rabbit serum linear peptides / Rabbit serum looped peptides / Binding of a rabbit serum to linear peptides of protein N of SARS-CoV Urbani (Rabbit serum linear peptides) / Binding of a rabbit serum to looped/cyclic peptides of protein N of SARS-CoV Urbani (Rabbit serum looped peptides): unit not given here.

The test system of assay [3] is antibodies in sera from SARS patients (sera 1a, 1b, 2, 6, 37, 62, London, SARS-yellow, SARS-green). It counts as binding, human. Details: Binding of serum 6 to linear peptides of protein X1 of SARS-CoV Urbani / Binding of serum 37 to linear peptides of protein X1 of SARS-CoV Urbani / Binding of serum 6 to looped/cyclic peptide (PEPSCAN-ELISA) / Binding of serum 37 to looped/cyclic peptide (PEPSCAN-ELISA) / Binding of serum 37 to looped/cyclic peptides of protein X1 of SARS-CoV Urbani / Binding of serum 6 to linear peptides of protein X2 / Binding of serum 37 to linear peptides of protein X2 / Binding of serum 37 to looped/cyclic peptides of protein X2 of SARS-CoV Urbani / Binding of serum 6 to linear peptides of protein M of SARS-CoV Urbani / Binding of serum 37 to linear peptides of protein M of SARS-CoV Urbani / Binding of serum 6 to looped/cyclic peptides of protein M of SARS-CoV Urbani / Binding of serum 37 to looped/cyclic peptides of protein M of SARS-CoV Urbani / Binding of serum 6 to linear peptides of protein X3 of SARS-CoV Urbani / Binding of serum 37 to linear peptides of protein X3 of SARS-CoV Urbani / Binding of serum 37 to looped/cyclic peptides of protein X3 of SARS-CoV Urbani / Binding of serum 6 to linear peptides of protein X4 of SARS-CoV Urbani / Binding of serum 37 to linear peptides of protein X4 of SARS-CoV Urbani / Binding of serum 37 to looped/cyclic peptides of protein X4 of SARS-CoV Urbani / Binding of serum 6 to linear peptides of protein X5 of SARS-CoV Urbani / Binding of serum 37 to linear peptides of protein X5 of SARS-CoV Urbani / Binding of serum 37 to looped/cyclic peptides of protein X5 of SARS-CoV Urbani / Binding of serum 6 to linear peptides of protein N of SARS-CoV Urbani / Binding of serum 37 to linear peptides of protein N of SARS-CoV Urbani / Binding of serum 6 to linear peptide (PEPSCAN-ELISA) / Binding of serum 1a to looped/cyclic peptides of protein N of SARS-CoV Urbani / Binding of serum 1b to looped/cyclic peptides of protein N of SARS-CoV Urbani / Binding of serum 2 to looped/cyclic peptides of protein N of SARS-CoV Urbani / Binding of serum 6 to looped/cyclic peptides of protein N of SARS-CoV Urbani / Binding of serum 37 to looped/cyclic peptides of protein N of SARS-CoV Urbani / Binding of serum 62 to looped/cyclic peptides of protein N of SARS-CoV Urbani / Binding of serum London to looped/cyclic peptides of protein N of SARS-CoV Urbani / Binding of serum SARS-green to looped/cyclic peptides of protein N of SARS-CoV Urbani: unit not given here.

In the case of LVVILRIGTQVLKTM, in assay [1], the “Binding of Control Serum Blood-Bank to Looped peptides” value is 0.8, the “Binding of Control serum Blood-bank to linear peptides” value came out at 0.7, the “Binding of Control serum LUMC to linear peptides” value was found to be 0.7 and the “Binding of Control serum LUMC to looped peptides” value is given as 0.6. Besides, in assay [2], the “Binding of a rabbit serum to linear peptides” value was determined as 0.4 and the “Binding of a rabbit serum to looped peptides” value is 0.6. Moreover, in assay [3], the “Binding of serum 1a to linear peptides of protein X2” value is reported as 0.7, the “Binding of serum 1a to looped/cyclic peptides of protein X2 of SARS-CoV Urbani” value was 0.6, the “Binding of serum 1b to linear peptides of protein X2” value is reported as 0.5 and the “Binding of serum 1b to looped/cyclic peptides of protein X2 of SARS-CoV Urbani” value is reported as 0.6. Moreover, in assay [3], the “Binding of serum 2 to linear peptides of protein X2” value was 0.5, the “Binding of serum 2 to looped/cyclic peptides of protein X2 of SARS-CoV Urbani” value was determined as 0.4, the “Binding of serum 6 to linear peptides of protein X2” value was found to be 0.4 and the “Binding of serum 6 to looped/cyclic peptides of protein X2 of SARS-CoV Urbani” value is recorded as 0.4. Moreover, in assay [3], the “Binding of serum 37 to linear peptides of protein X2” value was 0.6, the “Binding of serum 37 to looped/cyclic peptides of protein X2 of SARS-CoV Urbani” value is 0.4, the “Binding of serum 62 to linear peptides of protein X2” value was determined as 0.7 and the “Binding of serum 62 to looped/cyclic peptides of protein X2 of SARS-CoV Urbani” value came out at 0.7. For the same sequence, in assay [3], the “Binding of serum London to linear peptides of protein X2” value came out at 0.5, the “Binding of serum London to looped/cyclic peptides of protein X2 of SARS-CoV Urbani” value was found to be 0.3, the “Binding of serum SARS-green to linear peptides of protein X2” value is reported as 0.5 and the “Binding of serum SARS-green to looped/cyclic peptides of protein X2 of SARS-CoV Urbani” value came to 0.4. Besides, in assay [3], the “Binding of serum SARS-yellow to linear peptides of protein X2” value was found to be 0.7 and the “Binding of serum SARS-yellow to looped/cyclic peptides of protein X2 of SARS-CoV Urbani” value is reported as 0.5.
Consider LYALIYFLQCINACR, for which, in assay [1], the “Binding of Control Serum Blood-Bank to Looped peptides” value stood at 0.4, the “Binding of Control serum Blood-bank to linear peptides” value was found to be 0.7, the “Binding of Control serum LUMC to linear peptides” value is reported as 0.6 and the “Binding of Control serum LUMC to looped peptides” value stood at 0.6. Further, in assay [2], the “Binding of a rabbit serum to linear peptides” value was determined as 0.2 and the “Binding of a rabbit serum to looped peptides” value is listed as 0.6. Besides, in assay [3], the “Binding of serum 1a to linear peptides of protein X1 of SARS-CoV Urbani” value was 0.7, the “Binding of serum 1a to looped/cyclic peptide (PEPSCAN-ELISA)” value was determined as 0.4, the “Binding of serum 1b to linear peptides of protein X1 of SARS-CoV Urbani” value came to 0.5 and the “Binding of serum 1b to looped/cyclic peptide (PEPSCAN-ELISA)” value was determined as 0.3. In assay [3], the “Binding of serum 2 to linear peptides of protein X1 of SARS-CoV Urbani” value was 0.5, the “Binding of serum 2 to looped/cyclic peptide (PEPSCAN-ELISA)” value came out at 0.6, the “Binding of serum 6 to linear peptides of protein X1 of SARS-CoV Urbani” value is on record as 0.5 and the “Binding of serum 6 to looped/cyclic peptide (PEPSCAN-ELISA)” value is on record as 0.7. Further, in assay [3], the “Binding of serum 37 to linear peptides of protein X1 of SARS-CoV Urbani” value is listed as 0.6, the “Binding of serum 37 to looped/cyclic peptide (PEPSCAN-ELISA)” value is listed as 0.6, the “Binding of serum 62 to linear peptides of protein X1 of SARS-CoV Urbani” value stood at 0.6 and the “Binding of serum 62 to looped/cyclic peptide (PEPSCAN-ELISA)” value was determined as 0.5. Also, in assay [3], the “Binding of serum London to linear peptides of protein X1 of SARS-CoV Urbani” value came out at 0.3, the “Binding of serum London to looped/cyclic peptide (PEPSCAN-ELISA)” value is given as 1.2, the “Binding of serum SARS-green to linear peptides of protein X1 of SARS-CoV Urbani” value is recorded as 0.1 and the “Binding of serum SARS-green to looped/cyclic peptide (PEPSCAN-ELISA)” value is listed as 0.2. In assay [3], the “Binding of serum SARS-yellow to linear peptides of protein X1 of SARS-CoV Urbani” value stood at 0.4 and the “Binding of serum SARS-yellow to looped/cyclic peptide (PEPSCAN-ELISA)” value was 0.2.
As to LYDANYFVCWHTHNY, in assay [1], the “Binding of Control Serum Blood-Bank to Looped peptides” value is given as 0.7, the “Binding of Control serum Blood-bank to linear peptides” value is recorded as 0.8, the “Binding of Control serum LUMC to linear peptides” value stood at 0.7 and the “Binding of Control serum LUMC to looped peptides” value came to 0.5. In assay [2], the “Binding of a rabbit serum to linear peptides” value came out at 0.1 and the “Binding of a rabbit serum to looped peptides” value was determined as 0.5. In assay [3], the “Binding of serum 1a to linear peptides of protein X1 of SARS-CoV Urbani” value stood at 0.9, the “Binding of serum 1a to looped/cyclic peptide (PEPSCAN-ELISA)” value is 0.6, the “Binding of serum 1b to linear peptides of protein X1 of SARS-CoV Urbani” value was 0.8 and the “Binding of serum 1b to looped/cyclic peptide (PEPSCAN-ELISA)” value is given as 0.5. In assay [3], the “Binding of serum 2 to linear peptides of protein X1 of SARS-CoV Urbani” value amounted to 0.5, the “Binding of serum 2 to looped/cyclic peptide (PEPSCAN-ELISA)” value is reported as 0.4, the “Binding of serum 6 to linear peptides of protein X1 of SARS-CoV Urbani” value is 0.7 and the “Binding of serum 6 to looped/cyclic peptide (PEPSCAN-ELISA)” value worked out at 0.4. Besides, in assay [3], the “Binding of serum 37 to linear peptides of protein X1 of SARS-CoV Urbani” value is recorded as 0.8, the “Binding of serum 37 to looped/cyclic peptide (PEPSCAN-ELISA)” value was 0.6, the “Binding of serum 62 to linear peptides of protein X1 of SARS-CoV Urbani” value was 0.8 and the “Binding of serum 62 to looped/cyclic peptide (PEPSCAN-ELISA)” value is 0.6. Besides, in assay [3], the “Binding of serum London to linear peptides of protein X1 of SARS-CoV Urbani” value was 0.4, the “Binding of serum London to looped/cyclic peptide (PEPSCAN-ELISA)” value was 0.2, the “Binding of serum SARS-green to linear peptides of protein X1 of SARS-CoV Urbani” value is 0.4 and the “Binding of serum SARS-green to looped/cyclic peptide (PEPSCAN-ELISA)” value is listed as 0.3. In assay [3], the “Binding of serum SARS-yellow to linear peptides of protein X1 of SARS-CoV Urbani” value is 0.5 and the “Binding of serum SARS-yellow to looped/cyclic peptide (PEPSCAN-ELISA)” value is on record as 0.3.
Take LYIIKLVFLWLLWPV: in assay [1], the “Binding of Control Serum Blood-Bank to Looped peptides of the protein M of SARS-CoV Urbani” value is 0.7, the “Binding of Control serum Blood-bank to linear peptides of the protein M of SARS-CoV Urbani” value is reported as 0.7, the “Binding of Control serum LUMC to linear peptides of the protein M of SARS-CoV Urbani” value was found to be 0.7 and the “Binding of Control serum LUMC to looped peptides of the protein M of SARS-CoV Urbani” value came to 0.6. Also, in assay [2], the “Rabbit serum linear peptides” value is given as 0.1 and the “Rabbit serum looped peptides” value is on record as 0.3. Besides, in assay [3], the “Binding of serum 1a to linear peptides of protein M of SARS-CoV Urbani” value was determined as 0.8, the “Binding of serum 1a to looped/cyclic peptides of protein M of SARS-CoV Urbani” value came out at 0.6, the “Binding of serum 1b to linear peptides of protein M of SARS-CoV Urbani” value was found to be 0.6 and the “Binding of serum 1b to looped/cyclic peptides of protein M of SARS-CoV Urbani” value came out at 0.5. In assay [3], the “Binding of serum 2 to linear peptides of protein M of SARS-CoV Urbani” value is reported as 0.6, the “Binding of serum 2 to looped/cyclic peptides of protein M of SARS-CoV Urbani” value is listed as 0.5, the “Binding of serum 6 to linear peptides of protein M of SARS-CoV Urbani” value came to 0.4 and the “Binding of serum 6 to looped/cyclic peptides of protein M of SARS-CoV Urbani” value came out at 0.7. Besides, in assay [3], the “Binding of serum 37 to linear peptides of protein M of SARS-CoV Urbani” value is given as 0.4, the “Binding of serum 37 to looped/cyclic peptides of protein M of SARS-CoV Urbani” value was 0.6, the “Binding of serum 62 to linear peptides of protein M of SARS-CoV Urbani” value was 0.4 and the “Binding of serum 62 to looped/cyclic peptides of protein M of SARS-CoV Urbani” value is 0.6. In assay [3], the “Binding of serum London to linear peptides of protein M of SARS-CoV Urbani” value is 0.3, the “Binding of serum London to looped/cyclic peptides of protein M of SARS-CoV Urbani” value was found to be 0.2, the “Binding of serum SARS-green to linear peptides of protein M of SARS-CoV Urbani” value is on record as 0.5 and the “Binding of serum SARS-green to looped/cyclic peptides of protein M of SARS-CoV Urbani” value came out at 0.3. In addition, in assay [3], the “Binding of serum SARS-yellow to linear peptides of protein M of SARS-CoV Urbani” value came to 0.2 and the “Binding of serum SARS-yellow to looped/cyclic peptides of protein M of SARS-CoV Urbani” value is listed as 0.3.
